pIC50: −log10 of the molar value.
Target: T1, Ribonucleoside-diphosphate reductase large subunit (Mus musculus, UniProt P07742)
T1 sequence (P07742 whole entry): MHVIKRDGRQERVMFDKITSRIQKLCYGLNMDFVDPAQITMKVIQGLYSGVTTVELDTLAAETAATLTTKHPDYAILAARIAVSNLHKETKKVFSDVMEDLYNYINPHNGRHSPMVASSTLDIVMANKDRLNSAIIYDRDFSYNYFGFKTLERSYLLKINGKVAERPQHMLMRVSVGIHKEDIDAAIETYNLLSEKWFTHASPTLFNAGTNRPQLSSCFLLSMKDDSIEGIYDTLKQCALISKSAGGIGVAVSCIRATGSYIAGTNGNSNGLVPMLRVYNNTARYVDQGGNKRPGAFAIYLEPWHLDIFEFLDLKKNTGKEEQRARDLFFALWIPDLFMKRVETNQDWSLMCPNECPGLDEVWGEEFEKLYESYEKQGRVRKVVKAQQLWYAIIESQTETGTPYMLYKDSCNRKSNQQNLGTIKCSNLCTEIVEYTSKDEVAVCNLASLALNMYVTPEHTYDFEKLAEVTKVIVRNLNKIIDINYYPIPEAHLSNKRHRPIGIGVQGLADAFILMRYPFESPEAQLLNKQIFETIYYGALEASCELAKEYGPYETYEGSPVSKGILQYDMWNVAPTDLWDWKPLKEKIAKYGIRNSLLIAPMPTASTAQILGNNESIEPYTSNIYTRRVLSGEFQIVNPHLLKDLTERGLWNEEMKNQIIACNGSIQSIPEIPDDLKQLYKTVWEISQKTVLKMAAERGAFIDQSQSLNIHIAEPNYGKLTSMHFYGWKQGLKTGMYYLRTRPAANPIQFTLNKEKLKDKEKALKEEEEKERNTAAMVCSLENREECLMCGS
Assay: ChEBML_195421
Text: Inhibitory activity of compound against mammalian ribonucleotide reductase; Range is 40-42

Ac-AGAFTFNEDF-OH showed a pIC50 of 4.39.

— BindingDB's records for doi:10.1021/jm00076a015 (University of Pennsylvania, 1994)
